Measurements published in the CheMixHub viscosity set.

Assay: xn = mol fraction of the nth substance listed
Details: 101 kPa

CS(C)=O + CC#N
viscosity [mPa·s]
Details	298 K	298.15 K	303.15 K	308 K	308.15 K	313.15 K	318 K	318.15 K
x1 = 0.2	0.5206	0.477	–	–	–	–	0.3814	–
x1 = 0.4	0.8409	0.687	–	0.6302	–	–	0.4513	–
x1 = 0.6	1.16	0.987	–	0.8402	–	–	–	–
x1 = 0.8	1.42	1.42	–	1.161	–	–	0.8203	–
x2 = 0.0249	–	1.911	1.762	–	1.61	1.484	–	1.348
x2 = 0.0518	–	1.824	1.684	–	1.544	1.425	–	1.295
x2 = 0.0759	–	1.75	1.617	–	1.485	1.371	–	1.247
x2 = 0.1079	–	1.658	1.531	–	1.405	1.298	–	1.18
x2 = 0.157	–	1.527	1.406	–	–	–	–	1.082
x2 = 0.1998	–	1.422	1.306	–	1.194	1.098	–	1
x2 = 0.2609	–	1.281	–	–	1.066	0.9759	–	0.8875
x2 = 0.3034	–	1.188	1.085	–	0.9838	0.898	–	0.8161
x2 = 0.3548	–	1.082	0.9867	–	0.8905	0.8098	–	0.7348
x2 = 0.411	–	0.9742	0.8848	–	0.7978	0.7219	–	0.6547
x2 = 0.4696	–	0.8699	0.7875	–	0.7092	0.6398	–	0.5794
x2 = 0.5084	–	0.8053	0.7285	–	0.6554	0.591	–	0.5348
x2 = 0.5566	–	0.7292	0.6595	–	0.5949	0.5366	–	0.4864
x2 = 0.6053	–	0.6586	0.5945	–	0.5379	0.4862	–	0.4403
x2 = 0.6666	–	0.5821	0.5266	–	0.4786	0.435	–	0.3971
x2 = 0.7114	–	0.5345	0.4841	–	0.4428	0.4044	–	0.37
x2 = 0.7688	–	0.4819	0.4392	–	0.4048	0.3727	–	0.3423
x2 = 0.8081	–	0.4514	0.4129	–	0.3833	0.3554	–	0.3298
x2 = 0.851	–	0.4225	0.3905	–	0.3645	0.3396	–	0.3178
x2 = 0.9009	–	0.3934	0.368	–	0.3459	0.3257	–	0.3062
x2 = 0.9502	–	0.3658	0.3478	–	0.3285	–	–	–
